{
  "source": "patent US9011853B2",
  "about": "“B7-H4 fusion proteins and methods of use thereof” (Amplimmune, Inc., priority 2009, dated 2015)",
  "test_system": "serum levels of 58 analytes",
  "experiment": "Serum biomarker analysis, quantitative immunoassay multi-analyte profiling (Rules-Based Medicine RodentMAP v2.9), AA#80",
  "assay_type": "in vivo, mouse",
  "settings": "serum",
  "experimental": "In AA#80, serum samples were collected on Day 27, Day 34, Day 41 and Day 55 via the submandibular vein. Approximately 200 μL of blood per mouse was collected in Microtainer® serum separator tubes. Serum was removed following centrifugation and stored at <−65° C. until analysis.\nSelected serum samples were sent to Rules-Based Medicine (Austin, Tex.) for quantitative immunoassay multi-analyte profiling of serum samples, with the goal of identifying biomarkers that could be used to monitor disease progression and response to B7-H4-Ig treatment. Day 27, Day 34, and Day 41 sera from the three representative mice in the B7-H4-Ig group (tag #3332, 3334, and 3338) and three representative mice in the Synagis® group (tag #3324, 3329, and 3330) were analyzed for levels of 58 analytes using the RodentMAP v2.9 Testing Service.\nData from the Rules-Based Medicine analysis was analyzed using Microsoft Excel and GraphPad Prism software. T-tests were performed to compare the levels of each analyte in the B7-H4-Ig versus Synagis® treated samples. No correction was made for multiple comparisons. Additionally, correlation coefficients were calculated for each analyte versus disease score.",
  "note": "“And” between values parts separate entries of the source, which are not always exact repeats. Identical values can stand only once.",
  "data": [
    {"substance": "Human B7-H4-Ig: human B7-H4 extracellular domain fused to hinge, CH2 and CH3 regions of human immunoglobulin Cγ1 chain; representative SEQ ID NOs:114-137", "values": [
      {"measurement": "MCP-5 (Monocyte Chemoattractant Protein-5)", "setting": "Day 27, LDD 46.38", "value": "41.4 pg/mL and 33.8 pg/mL and 29.4 pg/mL"},
      {"measurement": "SCF (Stem Cell Factor)", "setting": "Day 27, LDD 75.17", "value": "204 pg/mL and 194 pg/mL and 275 pg/mL"},
      {"measurement": "MIP-1beta (Macrophage Inflammatory Protein-1beta)", "setting": "Day 27, LDD 77.65", "value": "110 pg/mL and 115 pg/mL and 173 pg/mL"},
      {"measurement": "Lymphotactin", "setting": "Day 27, LDD 85.48", "value": "164 pg/mL and 169 pg/mL and 194 pg/mL"},
      {"measurement": "VWF (Von Willebrand Factor)", "setting": "Day 27, LDD 98.6", "value": "143 ng/mL and 123 ng/mL and 107 ng/mL"},
      {"measurement": "M-CSF (Macrophage-Colony Stimulating Factor)", "setting": "Day 34, LDD 0.01795", "value": "5.79 ng/mL and 6.35 ng/mL and 6.51 ng/mL"},
      {"measurement": "MIP-1gamma (Macrophage Inflammatory Protein-1gamma)", "setting": "Day 34, LDD 0.0736", "value": "50.4 ng/mL and 30.1 ng/mL and 41 ng/mL"},
      {"measurement": "TNF-alpha (Tumor Necrosis Factor-alpha)", "setting": "Day 34, LDD 0.137", "value": "<low>"},
      {"measurement": "IL-5 (Interleukin-5)", "setting": "Day 34, LDD 0.194", "value": "0.474 ng/mL and 0.264 ng/mL and 0.403 ng/mL"},
      {"measurement": "MIP-1alpha (Macrophage Inflammatory Protein-1alpha)", "setting": "Day 34, LDD 0.2255", "value": "3.03 ng/mL and 2.88 ng/mL and 3.08 ng/mL"},
      {"measurement": "MIP-3beta (Macrophage Inflammatory Protein-3beta)", "setting": "Day 34, LDD 0.465", "value": "2.79 ng/mL and 2.49 ng/mL and 3.11 ng/mL"},
      {"measurement": "Tissue Factor", "setting": "Day 34, LDD 0.5175", "value": "10.8 ng/mL and 10.4 ng/mL and 13.3 ng/mL"},
      {"measurement": "MPO (Myeloperoxidase)", "setting": "Day 34, LDD 0.95", "value": "247 ng/mL and 254 ng/mL and 242 ng/mL"},
      {"measurement": "TPO (Thromboproletin)", "setting": "Day 34, LDD 2.66", "value": "43.4 ng/mL and 30.4 ng/mL and 36.1 ng/mL"},
      {"measurement": "SAP (Setrum Amtyloid P)", "setting": "Day 34, LDD 5.4", "value": "51.8 µg/mL and 31 µg/mL and 42.6 µg/mL"},
      {"measurement": "MIP-2 (Macrophage Inflammatory Protein-2)", "setting": "Day 34, LDD 7.174", "value": "36.8 pg/mL and 26.6 pg/mL and 22.2 pg/mL"},
      {"measurement": "MMP-9 (Matrix Metalloproteinase-9)", "setting": "Day 34, LDD 10", "value": "503 ng/mL and 334 ng/mL and 255 ng/mL"},
      {"measurement": "MCP-1 (Monocyte Chemoattractant Protein-1)", "setting": "Day 34, LDD 16.924", "value": "84.6 pg/mL and 56 pg/mL and 101 pg/mL"},
      {"measurement": "VCAM-1 (Vescular Cell Adhesion Molecule-1)", "setting": "Day 34, LDD 19", "value": "1860 ng/mL and 2190 ng/mL and 2470 ng/mL"},
      {"measurement": "MDC (Macrophage-Derived Chemokine)", "setting": "Day 34, LDD 21.85", "value": "1390 pg/mL and 1120 pg/mL and 1360 pg/mL"},
      {"measurement": "VEGF (Vescular Endotheial Cell Growth Factor)", "setting": "Day 34, LDD 38.2", "value": "160 pg/mL and 141 pg/mL and 155 pg/mL"},
      {"measurement": "IP-10 (Inducible Protein-10)", "setting": "Day 34, LDD 40.28", "value": "81 pg/mL and 59 pg/mL and 54.2 pg/mL"},
      {"measurement": "LIF (Leukemia Infabitory Factor)", "setting": "Day 34, LDD 43.6", "value": "1430 pg/mL and 1500 pg/mL and 1480 pg/mL"},
      {"measurement": "MCP-5 (Monocyte Chemoattractant Protein-5)", "setting": "Day 34, LDD 46.38", "value": "57.8 pg/mL and 29.2 pg/mL and 46.7 pg/mL"},
      {"measurement": "SCF (Stem Cell Factor)", "setting": "Day 34, LDD 75.17", "value": "182 pg/mL and 220 pg/mL and 217 pg/mL"},
      {"measurement": "Lymphotactin", "setting": "Day 34, LDD 85.48", "value": "196 pg/mL and 162 pg/mL and 197 pg/mL"},
      {"measurement": "VWF (Von Willebrand Factor)", "setting": "Day 34, LDD 98.6", "value": "101 ng/mL and 137 ng/mL and 135 ng/mL"},
      {"measurement": "M-CSF (Macrophage-Colony Stimulating Factor)", "setting": "Day 41, LDD 0.01795", "value": "5.02 ng/mL and 5.67 ng/mL and 6.07 ng/mL"},
      {"measurement": "MIP-1gamma (Macrophage Inflammatory Protein-1gamma)", "setting": "Day 41, LDD 0.0736", "value": "42.8 ng/mL and 32.7 ng/mL and 42.5 ng/mL"},
      {"measurement": "OSM (Oncostatin M)", "setting": "Day 41, LDD 0.13", "value": "<low>"},
      {"measurement": "TNF-alpha (Tumor Necrosis Factor-alpha)", "setting": "Day 41, LDD 0.137", "value": "<low>"},
      {"measurement": "IL-5 (Interleukin-5)", "setting": "Day 41, LDD 0.194", "value": "0.474 ng/mL and 0.254 ng/mL and 0.264 ng/mL"},
      {"measurement": "MIP-1alpha (Macrophage Inflammatory Protein-1alpha)", "setting": "Day 41, LDD 0.2255", "value": "3.13 ng/mL and 2.93 ng/mL and 3.03 ng/mL"},
      {"measurement": "IL-7 (Interleukin-7)", "setting": "Day 41, LDD 0.309", "value": "<low>"},
      {"measurement": "MIP-3beta (Macrophage Inflammatory Protein-3beta)", "setting": "Day 41, LDD 0.465", "value": "3.05 ng/mL and 3.03 ng/mL and 2.87 ng/mL"},
      {"measurement": "Tissue Factor", "setting": "Day 41, LDD 0.5175", "value": "10.8 ng/mL and 9.17 ng/mL and 9.37 ng/mL"},
      {"measurement": "MPO (Myeloperoxidase)", "setting": "Day 41, LDD 0.95", "value": "208 ng/mL and 228 ng/mL and 285 ng/mL"},
      {"measurement": "SGOT (Serum Glutamic-Oxaloacetic Transaminase)", "setting": "Day 41, LDD 1.86", "value": "85.8 µg/mL and 93.9 µg/mL and 71.1 µg/mL"},
      {"measurement": "TPO (Thromboproletin)", "setting": "Day 41, LDD 2.66", "value": "38 ng/mL and 32.4 ng/mL and 36.1 ng/mL"},
      {"measurement": "SAP (Setrum Amtyloid P)", "setting": "Day 41, LDD 5.4", "value": "47.9 µg/mL and 38.6 µg/mL and 46 µg/mL"},
      {"measurement": "MIP-2 (Macrophage Inflammatory Protein-2)", "setting": "Day 41, LDD 7.174", "value": "25.9 pg/mL and 23.4 pg/mL and 19.7 pg/mL"},
      {"measurement": "MCP-1 (Monocyte Chemoattractant Protein-1)", "setting": "Day 41, LDD 16.924", "value": "71.9 pg/mL and 53.1 pg/mL and 74.8 pg/mL"},
      {"measurement": "VCAM-1 (Vescular Cell Adhesion Molecule-1)", "setting": "Day 41, LDD 19", "value": "1840 ng/mL and 1940 ng/mL and 2390 ng/mL"}
    ]}
  ]
}
